Experimental data: US10806794B2, “Protease inhibitors having enhanced features” (priority 2008, dated 2020)

How the values were obtained:
[1] = target: CYP3A4 (Homo sapiens (Human), UniProt P08684); test: Metabolic stability in CYP3A4-expressing Bactosomes; assay type: in vitro ADME; details: 5 μM
Description: (§1) Compounds were evaluated for their propensity to act as substrates of individual human cytochrome P450 enzymes using a bacterial membrane preparation co-expressing human NADPH-cytochrome P450 reductase with either human CYP3A4 or CYP2D6 (Bactosomes™ Cypex, Ltd., Dundee, UK). In vitro metabolism studies using Bactosomes™ expressing individual human CYP isoforms monitor the extent to which a test compound is metabolized by a single CYP450 enzyme and allow identification of the CYP isoforms that may be responsible for the metabolism of a test compound. Timecourse analyses of test molecules (5 μM) with CYP2D6- or CYP3A4-expressing Bactosomes™ (100 pmol/mL) are performed in buffer (0.1 M phosphate, pH 7.4) in a final reaction volume of 25 μL. […] Reactions are terminated by the addition of methanol (50 μL) containing internal standard at 0, 5, 15, 30, and 45 minutes.

[2] = target: CYP2D6 (Homo sapiens (Human), UniProt P10635); test: Metabolic stability in CYP2D6-expressing Bactosomes; assay type: in vitro ADME; details: 5 μM
Sequence of CYP2D6 (P10635 whole entry): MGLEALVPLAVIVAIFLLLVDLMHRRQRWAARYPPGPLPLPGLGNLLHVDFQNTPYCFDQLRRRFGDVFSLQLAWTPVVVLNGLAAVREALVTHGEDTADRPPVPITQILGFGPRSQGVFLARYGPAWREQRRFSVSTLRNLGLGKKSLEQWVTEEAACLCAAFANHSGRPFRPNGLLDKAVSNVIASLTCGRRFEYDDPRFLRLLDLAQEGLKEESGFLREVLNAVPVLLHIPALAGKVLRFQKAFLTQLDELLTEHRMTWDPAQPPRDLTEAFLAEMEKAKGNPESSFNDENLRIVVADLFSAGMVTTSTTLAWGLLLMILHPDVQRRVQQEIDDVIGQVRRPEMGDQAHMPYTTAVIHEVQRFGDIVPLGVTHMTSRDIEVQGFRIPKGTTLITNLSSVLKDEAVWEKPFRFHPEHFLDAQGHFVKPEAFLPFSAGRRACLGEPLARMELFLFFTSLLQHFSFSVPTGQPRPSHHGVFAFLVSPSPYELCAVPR
Description: as §1

[3] = Plasma protein binding by equilibrium dialysis, mouse plasma; assay type: in vitro ADME; details: read-out: Mouse Plasma Protein Binding Fu ± SD
Description: (§2) In assays to estimate binding of test compounds to plasma proteins, test compound solutions (5 μM) are prepared in buffer and species-specific plasma (final DMSO concentration 0.5%). The plasma-containing solution is added to one side of the membrane of an equilibrium dialysis system, and the plasma-free is added to the other side. Dialysis was allowed to reach equilibrium by incubation for two hours at 37° C. The concentration of compound on both sides of the membrane was measured using LC-MS/MS.

[4] = Metabolic stability in cynomolgus monkey hepatocytes; assay type: in vitro ADME; details: cynomolgus monkey
[5] = Plasma protein binding by equilibrium dialysis, dog plasma; assay type: in vitro ADME; details: read-out: Dog Plasma Protein Binding Fu ± SD
Description: as §2

[6] = Metabolic stability in beagle dog hepatocytes; assay type: in vitro ADME; details: for hepatocyte CLint at 0.1 μM: read-out: Clint ± SEM
[7] = target: CYP2C9 (Homo sapiens (Human), UniProt P11712); test: biochemical
Sequence of CYP2C9 (P11712 whole entry): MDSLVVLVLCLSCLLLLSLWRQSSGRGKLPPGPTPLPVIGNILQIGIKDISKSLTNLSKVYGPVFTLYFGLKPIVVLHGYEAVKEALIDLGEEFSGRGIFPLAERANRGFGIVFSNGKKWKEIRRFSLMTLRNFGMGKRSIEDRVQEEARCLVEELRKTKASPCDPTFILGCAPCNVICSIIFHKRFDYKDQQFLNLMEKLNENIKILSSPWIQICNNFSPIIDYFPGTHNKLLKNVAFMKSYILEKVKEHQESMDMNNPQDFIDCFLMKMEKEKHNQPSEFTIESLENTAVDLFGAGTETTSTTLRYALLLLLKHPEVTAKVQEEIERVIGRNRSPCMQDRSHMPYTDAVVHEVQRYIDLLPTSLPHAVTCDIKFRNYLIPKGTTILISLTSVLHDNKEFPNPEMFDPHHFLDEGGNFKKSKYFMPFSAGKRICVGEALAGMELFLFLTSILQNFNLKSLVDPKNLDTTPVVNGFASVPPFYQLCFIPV

[8] = Metabolic stability in Sprague-Dawley rat hepatocytes; assay type: in vitro ADME; details: for hepatocyte CLint at 0.1 μM: read-out: Clint ± SEM
[9] = Microsomal protein binding by equilibrium dialysis; assay type: in vitro ADME; details: human liver microsomes, read-out: Microsomal Protein Binding Fu ± SD
Procedure, shortened: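 Compound at 3 μM final in buffer with or without human liver microsomes, dialysed to equilibrium at 37 °C. Both sides quantified by LC-MS/MS to derive fraction unbound (Fu).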

[10] = Plasma protein binding by equilibrium dialysis, rat plasma; assay type: in vitro ADME; details: read-out: Rat Plasma Protein Binding Fu ± SD
Description: as §2

[11] = Plasma protein binding by equilibrium dialysis, monkey plasma; assay type: in vitro ADME; details: read-out: Monkey Plasma Protein Binding Fu ± SD
Description: as §2

[12] = Metabolic stability in cryopreserved human hepatocytes; details: human, cryopreserved human hepatocytes, CLint ± SEM, human hepatocytes, 3 uM, incubated up to one hour
Procedure, shortened: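 Test compounds at 0.1 μM or 3 μM incubated with cryopreserved human hepatocytes at 0.5×10^6 viable cells/mL. Sampling up to four hours (0.1 μM) or one or two hours (3 μM), methanol quench, then remaining parent measured by cassette LC-MS/MS.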

[13] = tested on: CEM-SS cells
Description: To evaluate whether conjugated protease inhibitors retain the ability to protect against HIV-1 infection, CEM-SS cells infected with the RF strain of HIV-1 were treated with test compounds for six days, and then cell viability was monitored using the tetrazolium dye XTT. […] A value for Therapeutic Index (TI) was calculated as TC50/EC50.

Sequence of CYP3A4 (P08684 whole entry, canonical isoform): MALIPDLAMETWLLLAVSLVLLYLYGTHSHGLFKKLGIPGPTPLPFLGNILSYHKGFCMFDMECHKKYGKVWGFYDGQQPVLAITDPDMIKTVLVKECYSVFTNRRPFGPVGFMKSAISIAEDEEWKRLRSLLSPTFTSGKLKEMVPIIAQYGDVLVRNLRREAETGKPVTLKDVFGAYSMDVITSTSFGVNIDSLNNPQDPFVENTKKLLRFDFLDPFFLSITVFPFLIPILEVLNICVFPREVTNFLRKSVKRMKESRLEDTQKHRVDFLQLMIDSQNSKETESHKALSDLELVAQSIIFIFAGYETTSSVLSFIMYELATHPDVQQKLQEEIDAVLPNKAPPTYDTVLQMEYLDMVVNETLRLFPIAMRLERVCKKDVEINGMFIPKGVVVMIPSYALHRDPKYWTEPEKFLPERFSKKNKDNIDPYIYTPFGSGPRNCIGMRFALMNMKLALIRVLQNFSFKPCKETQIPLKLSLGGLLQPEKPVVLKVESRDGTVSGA

COCCOCCOCCOCCOCCOCCOCCNc1ccc(S(=O)(=O)N(CC(C)C)CC(O)[C@H](Cc2ccccc2)NC(=O)O[C@H]2CO[C@H]3OCC[C@H]32)cc1 (some centres unmarked) [mPEG7-N-Darunavir]
3A4 t1/2 ± SEM [1]: 13.9 ± 1.92 min | 2D6 t1/2 ± SEM [2]: 29.1 ± 1.95 min

COCCOCCOCCOC(=O)NC(C(=O)NC(Cc1ccccc1)C(O)CN(Cc1ccc(-c2ccccn2)cc1)NC(=O)C(NC(=O)OC)C(C)(C)C)C(C)(C)C (centres unmarked) [mono-mPEG3-Atazanavir, {1-[N′-[2-Hydroxy-3-(2-{2-[2-(2-methoxy-ethoxy)-ethoxy]-ethoxycarbonylamino}-3,3-dimethyl-butyrylamino)-4-phenyl-butyl]-N′-(4-pyridin-2-yl-benzyl)-hydrazinocarbonyl]-2,2-dimethyl-propyl}-carbamic Acid Methyl Ester]
fraction unbound at 2 h, 5 μM [3]: 0.159 ± 0.0161 | half-life at 0.1 μM [4]: 99.5 min | hepatocyte CLint at 0.1 μM ([4]; read-out: Clint ± SEM): 13.9 ± 0.904 µL/min/1e6 cells | fraction unbound at 2 h, 5 μM [5]: 0.252 ± 0.0397 | half-life at 0.1 μM [6]: 86 min | hepatocyte CLint at 0.1 μM [6]: 16.1 ± 0.000914 µL/min/1e6 cells | IC50 [7]: 24.6 µM | half-life at 0.1 μM [8]: 117 min | hepatocyte CLint at 0.1 μM [8]: 11.9 ± 0.00223 µL/min/1e6 cells | fraction unbound at 3 μM [9]: 0.852 ± 0.0495 | fraction unbound at 2 h, 5 μM [10]: 0.138 ± 0.0104 | fraction unbound at 2 h, 5 μM [11]: 0.204 ± 0.196

COC(=O)N[C@H](C(=O)N[C@@H](Cc1ccccc1)[C@@H](O)CN(Cc1ccc(-c2ccccn2)cc1)NC(=O)[C@@H](NC(=O)OC)C(C)(C)C)C(C)(C)C [Atazanavir, reference compound]
fraction unbound at 2 h, 5 μM [3]: 0.0574 ± 0.00286 | hepatocyte CLint at 3 μM [12]: 5.15 ± 1.13 µL/min/1e6 cells | fraction unbound at 2 h, 5 μM [5]: 0.139 ± 0.0167 | half-life at 0.1 μM [6]: 758 min | hepatocyte CLint at 0.1 μM [6]: 1.83 ± 0.000561 µL/min/1e6 cells | IC50 [7]: 10.3 µM | half-life at 0.1 μM [8]: 13.7 min | hepatocyte CLint at 0.1 μM [8]: 101 ± 0.00802 µL/min/1e6 cells | fraction unbound at 3 μM [9]: 0.846 ± 0.0308 | fraction unbound at 2 h, 5 μM [10]: 0.079 ± 0.00684 | fraction unbound at 2 h, 5 μM [11]: 0.201 ± 0.0183

COCCOC(=O)NC(C(=O)NC(Cc1ccccc1)C(O)CN(Cc1ccc(-c2ccccn2)cc1)NC(=O)C(NC(=O)OC)C(C)(C)C)C(C)(C)C (centres unmarked) [mono-mPEG1-Atazanavir]
CEM-SS TC50 ± SD [13]: 49.1 ± 6.4 µM

COCCOCCOCCOCCOCCOCCOCCOC(=O)NC(C(=O)NC(Cc1ccccc1)C(O)CN(Cc1ccc(-c2ccccn2)cc1)NC(=O)C(NC(=O)OC)C(C)(C)C)C(C)(C)C (centres unmarked) [mono-mPEG7-Atazanavir]
CEM-SS TC50 ± SD [13]: 133.8 ± 24.5 µM

COCCOCCOCCOCCOCCNc1ccc(S(=O)(=O)N(CC(C)C)CC(O)[C@H](Cc2ccccc2)NC(=O)O[C@H]2CO[C@H]3OCC[C@H]32)cc1 (some centres unmarked) [mPEG5-N-Darunavir]
3A4 t1/2 ± SEM [1]: 37.4 ± 4.78 min | 2D6 t1/2 ± SEM [2]: 49.6 ± 2.63 min
